In patent publication US7531320B2, “Modulation of β-catenin/TCF-activated transcription” (priority 2003, dated 2009):

Experiments:
[1] = tested on: nuclear β-catenin in SW480 cells; test: β-catenin immunofluorescence and western blot localization in SW480 cells; assay type: cell-based, human; details: 25 μM, 24 hours
Description: FIG. 4. COMPOUND 1 decreases nuclear β-catenin • A. β-catenin immunofluorescence microscopy. Log phase SW480 (left) and HCT116 (right) cells were fixed and stained with either anti-β-catenin red (upper panel, A) or anti-CBP (upper panel, B) green. The center panel represents the superimposed β-catenin and CBP in SW480 (left) and HCT116 (right) cells. […] 25 μg of total protein from the cell extracts of SW480 cells with or without 24 hr treatment of COMPOUND1 was used for detection of cytosolic and nuclear β-catenin.
Immunofluorescence was used to examine the localization of CBP and β-catenin in SW480 and HCT116 cells treated with COMPOUND 1 (25 μM) or control (0.5% DMSO). Cells at log phase were seeded and after 24 hours, the cells were treated with COMPOUND 1 or control. 24 hours post treatment, cells were fixed. The coverslips were incubated with antibodies raised against CBP (A-22) (Santa Cruz Biotechnology) and β-catenin (Transduction Laboratories), respectively. The slides were examined using a Nikon PCM 2000 Laser Scanning Confocal Microscope after the secondary antibodies conjugated to either FITC or TRITC (Jackson ImmunoResearch, Westgrove, Pa.) were applied.
The subcellular distribution of β-catenin and CBP was examined in order to determine whether the localization of either was affected by COMPOUND 1. […]

[2] = tested on: caspase-3/7 in HCT116 cells; test: Caspase-3/7 activity assay, HCT116 cells; assay type: cell-based, human; details: 25 μM, 24 hours, compared to CCD18Co cells
Description: FIG. 6. • A. COMPOUND 1 arrests cells in G1. FACS analysis was performed on SW480 (lower panel) and HCT116 (upper panel) cells treated for 24 hours with either COMPOUND 1 (25 μM) (right) or control (0.5% DMSO (left). 5.5×10^6 cells were fixed and stained with propidium iodide (PI). G0/G1, S, and G2/M are indicated by arrows. • B. COMPOUND 1 selectively activates caspases in colon carcinoma cell lines. SW480 and HCT116 (left graph) cells (10^5) along with the normal colonocytes, CCD18Co (right graph) were treated with either control (0.5% DMSO) or COMPOUND 1 (25 μM). 24 hours post treatment, cells were lysed and the caspase-3/7 enzymatic activities were measured. Relative fluorescence units (RFU) were calculated by subtracting the unit values of the blank (control, without cells) from the treated samples (COMPOUND 1 or control) and plotted.
SW480, HCT116, and CCD18Co cells were plated at 10^5 cells per well (96-well plates) for 24 hours prior to treatment. 25 μM of COMPOUND 1 or control (0.5% DMSO) was added to each well. 24 hours post treatment, cells were lysed and caspase activity was measured using a caspase-3/7 activity kit (Apo-One Homogeneous caspase-3/7 assay, #G77905, Promega). Relative fluorescence units (RFU) were obtained by subtracting the unit values of the blank (control, without cells) from the experimental measured values. […]

O=C1C(Cc2ccc(O)cc2)N2C(=O)CCN(C(=O)NCc3ccccc3)C2CN1Cc1cccc2ccccc12 (centres unmarked) [COMPOUND 1]
Subcellular distribution of β-catenin [1]: caused translocation of β-catenin to the cytoplasm
Caspase-3/7 activity [2]: specifically and significantly activated
